Test results reported in US20250304620A1, “ANTIMICROBIAL PEPTIDE AND APPLICATION THEREOF” (priority 2023, published 2025).
Marks after values point to notes of the source that are not given here. Non-standard residues stand in square brackets, D forms with d. Residues, ends and D or L forms follow the SMILES beside them. dPhe(3,4-F2) = N[C@H](Cc1ccc(F)c(F)c1)C(=O)O; dPhe(4-Cl) = N[C@H](Cc1ccc(Cl)cc1)C(=O)O; dPhe(4-F) = N[C@H](Cc1ccc(F)cc1)C(=O)O; d2Nal = N[C@H](Cc1ccc2ccccc2c1)C(=O)O

How the values were obtained:
rabbit red blood cells = format: cell-based; settings: red cells of rabbit, 1 h
[1] = tested on: Escherichia coli ATCC 25922; assay: Oral formulations on mice with systemic bacterial infection; format: in vivo, ICR mice; settings: three times a day for 7 days; for Number of mice that died on each day after infection: day 4 / Number of mice that died on each day after infection: day 5 / Number of mice that died on each day after infection: day 6 / Number of mice that died on each day after infection: day 7 / Number of mice that died on each day after infection: day 8 / Average survival times (Days): n = 10; for Average survival times (Days): observed for 14 d; for survival time of mice infected with Escherichia coli: gavage, observed 14 d
Method: Both female and male ICR mice were used in the test, half of the female and male mice were taken and randomly assigned into groups, with 10 mice in each group, and kept in separate cages. The mice were divided into a blank control group, a negative control group, a positive control Levofloxacin group, and AMPs LV-1 to LV-30 groups. An Escherichia coli ATCC 25922 bacterial suspension was prepared, a concentration of the suspension was adjusted 1×10^7 CFU/mL for subsequent use. Except for the blank control group, all other mice were injected with the Escherichia coli suspension (0.2 mL, 1×10^7 CFU/mL), into abdominal cavity of the mice, to establish a model. After the model was successfully established, the mice were given drug immediately according to their body weights. Except for the blank control group and the negative control group, the mice in all other groups were gavaged with different compounds, three times a day for 7 consecutive days. The mice were then observed for 14 d. The death of mice in each group was observed, and survival time of the mice was recorded. Results of the effect of the oral formulations of AMPs LV-1 to LV-30 on the survival time of mice infected with Escherichia coli are shown in Table 11.

CC(=O)N[C@H](CCCNC(=N)N)C(=O)N[C@H](CCCNC(=N)N)C(=O)N[C@H](CC(C)C)C(=O)N[C@H](CC(C)C)C(=O)N[C@H](Cc1ccc2ccccc2c1)C(=O)N[C@H](CCCNC(=N)N)C(=O)N[C@H](CC(C)C)C(=O)N[C@H](CCCNC(=N)N)C(=O)N[C@H](Cc1ccc2ccccc2c1)C(=O)N[C@H](CCCNC(=N)N)C(=O)N[C@H](CCCNC(=N)N)C(N)=O [LV-1] (Ac-[dR][dR][dL][dL][d2Nal][dR][dL][dR][d2Nal][dR][dR]-NH2)
MHC (minimum hemolytic concentration, lowest concentration causing 10% hemolysis) (rabbit red blood cells): >1000 µg/mL
Number of mice that died on each day after infection: day 4 ([1]; 0.2 mg/kg gavage): 0 Mouse
Number of mice that died on each day after infection: day 5 ([1]; 0.2 mg/kg gavage): 3 Mouse
Number of mice that died on each day after infection: day 6 ([1]; 0.2 mg/kg gavage): 1 Mouse
Number of mice that died on each day after infection: day 7 ([1]; 0.2 mg/kg gavage): 0 Mouse
Number of mice that died on each day after infection: day 8 ([1]; 0.2 mg/kg gavage): 1 Mouse
Average survival times (Days) ([1]; 0.2 mg/kg gavage): 9.9** Days
Number of mice that died on each day after infection: day 4 ([1]; 1 mg/kg gavage): 0 Mouse
Number of mice that died on each day after infection: day 5 ([1]; 1 mg/kg gavage): 0 Mouse
Number of mice that died on each day after infection: day 6 ([1]; 1 mg/kg gavage): 1 Mouse
Number of mice that died on each day after infection: day 7 ([1]; 1 mg/kg gavage): 1 Mouse
Number of mice that died on each day after infection: day 8 ([1]; 1 mg/kg gavage): 1 Mouse
Average survival times (Days) ([1]; 1 mg/kg gavage): 11.9**** Days
Number of mice that died on each day after infection: day 4 ([1]; 5 mg/kg gavage): 0 Mouse
Number of mice that died on each day after infection: day 5 ([1]; 5 mg/kg gavage): 0 Mouse
Number of mice that died on each day after infection: day 6 ([1]; 5 mg/kg gavage): 2 Mouse
Number of mice that died on each day after infection: day 7 ([1]; 5 mg/kg gavage): 1 Mouse
Number of mice that died on each day after infection: day 8 ([1]; 5 mg/kg gavage): 0 Mouse
Average survival times (Days) ([1]; 5 mg/kg gavage): 11.7**** Days
survival time of mice infected with Escherichia coli [1]: superior to those of the Levofloxacin group

CC(=O)N[C@H](CCCNC(=N)N)C(=O)N[C@H](CCCCN)C(=O)N[C@H](CC(C)C)C(=O)N[C@H](CC(C)C)C(=O)N[C@H](Cc1ccccc1)C(=O)N[C@H](CCCNC(=N)N)C(=O)N[C@H](CC(C)C)C(=O)N[C@H](CCCCN)C(=O)N[C@H](Cc1ccccc1)C(=O)N[C@H](CCCNC(=N)N)C(=O)N[C@H](CCCCN)C(N)=O [LV-2] (Ac-[dR][dK][dL][dL][dF][dR][dL][dK][dF][dR][dK]-NH2)
MHC (minimum hemolytic concentration, lowest concentration causing 10% hemolysis) (rabbit red blood cells): >1000 µg/mL
Number of mice that died on each day after infection: day 4 ([1]; 0.2 mg/kg gavage): 1 Mouse
Number of mice that died on each day after infection: day 5 ([1]; 0.2 mg/kg gavage): 2 Mouse
Number of mice that died on each day after infection: day 6 ([1]; 0.2 mg/kg gavage): 1 Mouse
Number of mice that died on each day after infection: day 7 ([1]; 0.2 mg/kg gavage): 1 Mouse
Number of mice that died on each day after infection: day 8 ([1]; 0.2 mg/kg gavage): 1 Mouse
Average survival times (Days) ([1]; 0.2 mg/kg gavage): 9.1** Days
Number of mice that died on each day after infection: day 4 ([1]; 1 mg/kg gavage): 0 Mouse
Number of mice that died on each day after infection: day 5 ([1]; 1 mg/kg gavage): 2 Mouse
Number of mice that died on each day after infection: day 6 ([1]; 1 mg/kg gavage): 1 Mouse
Number of mice that died on each day after infection: day 7 ([1]; 1 mg/kg gavage): 0 Mouse
Number of mice that died on each day after infection: day 8 ([1]; 1 mg/kg gavage): 0 Mouse
Average survival times (Days) ([1]; 1 mg/kg gavage): 11.4**** Days
Number of mice that died on each day after infection: day 4 ([1]; 5 mg/kg gavage): 0 Mouse
Number of mice that died on each day after infection: day 5 ([1]; 5 mg/kg gavage): 3 Mouse
Number of mice that died on each day after infection: day 6 ([1]; 5 mg/kg gavage): 1 Mouse
Number of mice that died on each day after infection: day 7 ([1]; 5 mg/kg gavage): 0 Mouse
Number of mice that died on each day after infection: day 8 ([1]; 5 mg/kg gavage): 0 Mouse
Average survival times (Days) ([1]; 5 mg/kg gavage): 10.5*** Days
survival time of mice infected with Escherichia coli [1]: superior to those of the Levofloxacin group

CC(=O)N[C@H](CCCNC(=N)N)C(=O)N[C@H](CCCCN)C(=O)N[C@H](CC(C)C)C(=O)N[C@H](CC(C)C)C(=O)N[C@H](Cc1ccccc1)C(=O)N[C@H](CCCNC(=N)N)C(=O)N[C@H](CC(C)C)C(=O)N[C@H](CCCCN)C(=O)N[C@H](Cc1ccc2ccccc2c1)C(=O)N[C@H](CCCNC(=N)N)C(=O)N[C@H](CCCCN)C(N)=O [LV-3] (Ac-[dR][dK][dL][dL][dF][dR][dL][dK][d2Nal][dR][dK]-NH2)
MHC (minimum hemolytic concentration, lowest concentration causing 10% hemolysis) (rabbit red blood cells): >1000 µg/mL
Number of mice that died on each day after infection: day 4 ([1]; 1 mg/kg gavage): 1 Mouse
Number of mice that died on each day after infection: day 5 ([1]; 1 mg/kg gavage): 0 Mouse
Number of mice that died on each day after infection: day 6 ([1]; 1 mg/kg gavage): 1 Mouse
Number of mice that died on each day after infection: day 7 ([1]; 1 mg/kg gavage): 2 Mouse
Number of mice that died on each day after infection: day 8 ([1]; 1 mg/kg gavage): 1 Mouse
Average survival times (Days) ([1]; 1 mg/kg gavage): 10.2*** Days

CC(=O)N[C@H](CCCNC(=N)N)C(=O)N[C@H](CCCCN)C(=O)N[C@H](CC(C)C)C(=O)N[C@H](CC(C)C)C(=O)N[C@H](Cc1ccc2ccccc2c1)C(=O)N[C@H](CCCNC(=N)N)C(=O)N[C@H](CC(C)C)C(=O)N[C@H](CCCCN)C(=O)N[C@H](Cc1ccccc1)C(=O)N[C@H](CCCNC(=N)N)C(=O)N[C@H](CCCCN)C(N)=O [LV-4] (Ac-[dR][dK][dL][dL][d2Nal][dR][dL][dK][dF][dR][dK]-NH2)
MHC (minimum hemolytic concentration, lowest concentration causing 10% hemolysis) (rabbit red blood cells): >1000 µg/mL
Number of mice that died on each day after infection: day 4 ([1]; 1 mg/kg gavage): 0 Mouse
Number of mice that died on each day after infection: day 5 ([1]; 1 mg/kg gavage): 1 Mouse
Number of mice that died on each day after infection: day 6 ([1]; 1 mg/kg gavage): 2 Mouse
Number of mice that died on each day after infection: day 7 ([1]; 1 mg/kg gavage): 2 Mouse
Number of mice that died on each day after infection: day 8 ([1]; 1 mg/kg gavage): 1 Mouse
Average survival times (Days) ([1]; 1 mg/kg gavage): 9.5** Days

CC(=O)N[C@H](CCCNC(=N)N)C(=O)N[C@H](CCCCN)C(=O)N[C@H](CC(C)C)C(=O)N[C@H](CC(C)C)C(=O)N[C@H](Cc1ccc(F)cc1)C(=O)N[C@H](CCCCN)C(=O)N[C@H](CC(C)C)C(=O)N[C@H](CCCCN)C(=O)N[C@H](Cc1ccc(F)cc1)C(=O)N[C@H](CCCCN)C(=O)N[C@H](CCCNC(=N)N)C(N)=O [LV-5] (Ac-[dR][dK][dL][dL][dPhe(4-F)][dK][dL][dK][dPhe(4-F)][dK][dR]-NH2)
MHC (minimum hemolytic concentration, lowest concentration causing 10% hemolysis) (rabbit red blood cells): >1000 µg/mL
Number of mice that died on each day after infection: day 4 ([1]; 1 mg/kg gavage): 1 Mouse
Number of mice that died on each day after infection: day 5 ([1]; 1 mg/kg gavage): 2 Mouse
Number of mice that died on each day after infection: day 6 ([1]; 1 mg/kg gavage): 2 Mouse
Number of mice that died on each day after infection: day 7 ([1]; 1 mg/kg gavage): 1 Mouse
Number of mice that died on each day after infection: day 8 ([1]; 1 mg/kg gavage): 0 Mouse
Average survival times (Days) ([1]; 1 mg/kg gavage): 8.9** Days

CC(=O)N[C@H](CCCNC(=N)N)C(=O)N[C@H](CCCCN)C(=O)N[C@H](CC(C)C)C(=O)N[C@H](CC(C)C)C(=O)N[C@H](Cc1ccc(F)c(F)c1)C(=O)N[C@H](CCCCN)C(=O)N[C@H](CC(C)C)C(=O)N[C@H](CCCCN)C(=O)N[C@H](Cc1ccc(F)c(F)c1)C(=O)N[C@H](CCCCN)C(=O)N[C@H](CCCNC(=N)N)C(N)=O [LV-6] (Ac-[dR][dK][dL][dL][dPhe(3,4-F2)][dK][dL][dK][dPhe(3,4-F2)][dK][dR]-NH2)
MHC (minimum hemolytic concentration, lowest concentration causing 10% hemolysis) (rabbit red blood cells): >1000 µg/mL
Number of mice that died on each day after infection: day 4 ([1]; 0.2 mg/kg gavage): 1 Mouse
Number of mice that died on each day after infection: day 5 ([1]; 0.2 mg/kg gavage): 3 Mouse
Number of mice that died on each day after infection: day 6 ([1]; 0.2 mg/kg gavage): 2 Mouse
Number of mice that died on each day after infection: day 7 ([1]; 0.2 mg/kg gavage): 0 Mouse
Number of mice that died on each day after infection: day 8 ([1]; 0.2 mg/kg gavage): 0 Mouse
Average survival times (Days) ([1]; 0.2 mg/kg gavage): 8.7** Days
Number of mice that died on each day after infection: day 4 ([1]; 1 mg/kg gavage): 1 Mouse
Number of mice that died on each day after infection: day 5 ([1]; 1 mg/kg gavage): 0 Mouse
Number of mice that died on each day after infection: day 6 ([1]; 1 mg/kg gavage): 1 Mouse
Number of mice that died on each day after infection: day 7 ([1]; 1 mg/kg gavage): 1 Mouse
Number of mice that died on each day after infection: day 8 ([1]; 1 mg/kg gavage): 1 Mouse
Average survival times (Days) ([1]; 1 mg/kg gavage): 10.9*** Days
Number of mice that died on each day after infection: day 4 ([1]; 5 mg/kg gavage): 2 Mouse
Number of mice that died on each day after infection: day 5 ([1]; 5 mg/kg gavage): 1 Mouse
Number of mice that died on each day after infection: day 6 ([1]; 5 mg/kg gavage): 1 Mouse
Number of mice that died on each day after infection: day 7 ([1]; 5 mg/kg gavage): 0 Mouse
Number of mice that died on each day after infection: day 8 ([1]; 5 mg/kg gavage): 0 Mouse
Average survival times (Days) ([1]; 5 mg/kg gavage): 10.3*** Days
survival time of mice infected with Escherichia coli [1]: superior to those of the Levofloxacin group

CC(=O)N[C@H](CCCNC(=N)N)C(=O)N[C@H](CCCCN)C(=O)N[C@H](CC(C)C)C(=O)N[C@H](CC(C)C)C(=O)N[C@H](Cc1ccc(Cl)cc1)C(=O)N[C@H](CCCCN)C(=O)N[C@H](CC(C)C)C(=O)N[C@H](CCCCN)C(=O)N[C@H](Cc1ccc(Cl)cc1)C(=O)N[C@H](CCCCN)C(=O)N[C@H](CCCNC(=N)N)C(N)=O [LV-7] (Ac-[dR][dK][dL][dL][dPhe(4-Cl)][dK][dL][dK][dPhe(4-Cl)][dK][dR]-NH2)
MHC (minimum hemolytic concentration, lowest concentration causing 10% hemolysis) (rabbit red blood cells): >1000 µg/mL
Number of mice that died on each day after infection: day 4 ([1]; 1 mg/kg gavage): 2 Mouse
Number of mice that died on each day after infection: day 5 ([1]; 1 mg/kg gavage): 2 Mouse
Number of mice that died on each day after infection: day 6 ([1]; 1 mg/kg gavage): 0 Mouse
Number of mice that died on each day after infection: day 7 ([1]; 1 mg/kg gavage): 1 Mouse
Number of mice that died on each day after infection: day 8 ([1]; 1 mg/kg gavage): 1 Mouse
Average survival times (Days) ([1]; 1 mg/kg gavage): 8.9** Days
